System: HepaRG
Assay: LDH release cytotoxicity, % of total lysis control; higher = more cytotoxic
Settings: 48 h
In short: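 HepaRG cells from a single lot were plated on collagen I-coated 96-well plates and treated in duplicate for 48 h with eight-point half-log series of test chemicals, starting at 100 µM, in serum-free induction medium containing 0.5% DMSO. Total lysis wells were given 0.1% Triton X. LDH released into 50 µL of spent medium was measured as resorufin fluorescence with CytoTox-ONE on a Tecan Safire. Percent cytotoxicity was normalized to on-plate vehicle and total lysis controls and then averaged across duplicates.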

CCC(C)(c1ccc(O)cc1)c1ccc(O)cc1 [Bisphenol B]
Settings	LDH release cytotoxicity [%]
0.03162 µM	-0.0728
0.1 µM	0.29
0.3162278 µM	0.714
1 µM	2.34
3.16228 µM	1.11
10 µM	1.29
31.6228 µM	1.29
100 µM	4.62

OB(O)O [Boric acid (H3BO3)]
Settings	LDH release cytotoxicity [%]
0.03162 µM	-0.989
0.1 µM	-0.753
0.3162278 µM	0.0737
1 µM	-0.582
3.16228 µM	-0.954
10 µM	-0.232
31.6228 µM	0.368
100 µM	0.851

O=C(Nc1ccccc1-c1ccc(Cl)cc1)c1cccnc1Cl [Boscalid]
Settings	LDH release cytotoxicity [%]
0.0332039 µM	-0.385
0.105 µM	-0.471
0.332039 µM	-0.417
1.05 µM	-1.35
3.32039 µM	-1.2
10.5 µM	-0.348
33.2039 µM	-0.586
105 µM	0.89

CCC(C)N1C(=O)N=C(C)C(Br)C1=O (configuration not stated) [Bromacil]
Settings	LDH release cytotoxicity [%]
0.031623 µM	-0.635
0.1 µM	-3.85
0.316228 µM	-3.85
1 µM	-3.54
3.16228 µM	-3.65
10 µM	-2.46
31.6228 µM	0.888
100 µM	5.41

N#Cc1cc(Br)c(O)c(Br)c1 [Bromoxynil]
Settings	LDH release cytotoxicity [%]
0.0253 µM	-2.04
0.08 µM	-2.14
0.252982 µM	-2.16
0.8 µM	-1.57
2.52982 µM	-1.26
8 µM	0.434
25.2982 µM	0.49
80 µM	55.4

O=[N+]([O-])C(Br)(CO)CO [Bronopol]
Settings	LDH release cytotoxicity [%]
0.031623 µM	-1.83
0.1 µM	-3.38
0.316228 µM	-2.69
1 µM	-3.3
3.16228 µM	-3.31
10 µM	-2.52
31.6228 µM	-0.61
100 µM	0.628

CC(C)N1C(=O)N(c2ccccc2)CSC1=NC(C)(C)C [Buprofezin]
Settings	LDH release cytotoxicity [%]
0.03162 µM	-1.37
0.1 µM	-1.93
0.3162278 µM	-1.95
1 µM	-2.46
3.16228 µM	-2.17
10 µM	-1.91
31.6228 µM	-2.33
100 µM	11.8

CS(=O)(=O)OCCCCOS(C)(=O)=O [Busulfan]
Settings	LDH release cytotoxicity [%]
0.03162 µM	-1.48
0.1 µM	-0.871
0.3162278 µM	-1.32
1 µM	-2.08
3.16228 µM	-1.19
10 µM	-0.461
31.6228 µM	0.385
100 µM	0.593

CCCCOCN(C(=O)CCl)c1c(CC)cccc1CC [Butachlor]
Settings	LDH release cytotoxicity [%]
0.03162 µM	0.674
0.1 µM	-0.43
0.3162278 µM	-0.96
1 µM	-0.4246
3.16228 µM	-0.143
10 µM	0.287
31.6228 µM	0.713
100 µM	2.96

C=CCOC(=O)C(C)(C)OC(=O)c1cc(-n2c(=O)cc(C(F)(F)F)n(C)c2=O)ccc1Cl [Butafenacil]
Settings	LDH release cytotoxicity [%]
0.0317809 µM	-1.79
0.1005 µM	-0.9
0.317809 µM	-0.684
1.005 µM	-2.04
3.17809 µM	-1.27
10.05 µM	-0.764
31.7809 µM	-0.16
100.5 µM	1.19

CC(C)N(Cc1ccccc1)C(=O)C(C)(C)C [Butam]
Settings	LDH release cytotoxicity [%]
0.03162 µM	-0.681
0.1 µM	-1.54
0.3162278 µM	-1.1
1 µM	-0.413
3.16228 µM	-0.189
10 µM	0.285
31.6228 µM	0.032
100 µM	0.934

CCCC(=O)O [Butanoic acid]
Settings	LDH release cytotoxicity [%]
0.03162 µM	0.168
0.1 µM	-0.77
0.3162278 µM	-0.76
1 µM	-1.47
3.16228 µM	-0.676
10 µM	-0.93
31.6228 µM	-0.26
100 µM	-0.235

CCC(C)Nc1c([N+](=O)[O-])cc(C(C)(C)C)cc1[N+](=O)[O-] (configuration not stated) [Butralin]
Settings	LDH release cytotoxicity [%]
0.031623 µM	-1.24
0.1 µM	-2.37
0.316228 µM	-1.26
1 µM	-1.89
3.16228 µM	-2.08
10 µM	-2.15
31.6228 µM	-1.93
100 µM	-1.58

CCCCOC(=O)c1ccccc1 [Butyl benzoate]
Settings	LDH release cytotoxicity [%]
0.03162 µM	-1.31
0.1 µM	-1.78
0.3162278 µM	-2.41
1 µM	-1.63
3.16228 µM	-1.96
10 µM	-1.46
31.6228 µM	-1.03
100 µM	0.0897

CCSC(=O)N(CC(C)C)CC(C)C [Butylate]
Settings	LDH release cytotoxicity [%]
0.03162 µM	-1.39
0.1 µM	-1.51
0.3162278 µM	-0.761
1 µM	-1.26
3.16228 µM	-0.761
10 µM	-0.00901
31.6228 µM	-0.0439
100 µM	-0.00901

CCCCc1ccccc1 [Butylbenzene]
Settings	LDH release cytotoxicity [%]
0.03162 µM	-0.0627
0.1 µM	-0.967
0.3162278 µM	-0.793
1 µM	-0.547
3.16228 µM	-0.941
10 µM	-0.027
31.6228 µM	-0.00747
100 µM	1.27

CCCCOC(=O)c1ccc(O)cc1 [Butylparaben]
Settings	LDH release cytotoxicity [%]
0.03162 µM	-1.57
0.1 µM	-1.1
0.3162278 µM	-1.42
1 µM	-2.15
3.16228 µM	-2.51
10 µM	-2.14
31.6228 µM	-2.11
100 µM	-0.69

CCCCCCOC(=O)CC(CC(=O)OCCCCCC)(OC(=O)CCC)C(=O)OCCCCCC [Butyryl-n-trihexylcitrate]
Settings	LDH release cytotoxicity [%]
0.03162 µM	-0.556
0.1 µM	-0.753
0.3162278 µM	-0.622
1 µM	-0.825
3.16228 µM	-0.796
10 µM	-0.597
31.6228 µM	-0.0452
100 µM	0.5774

Oc1ccc2ccccc2c1N=Nc1ccccc1 [C.I. Solvent Yellow 14]
Settings	LDH release cytotoxicity [%]
0.031623 µM	-0.466
0.1 µM	-3.7
0.316228 µM	-3.44
1 µM	-2.66
3.16228 µM	-0.781
10 µM	-0.446
31.6228 µM	-2.17
100 µM	-3.46
